Reference: PubChem BioAssay AID1918935 (Molecular Pharmacology Branch, DTP, NCI, 2023)
Where “and” joins values, the source holds several entries; their conditions need not be identical. Identical values can stand only once. One block for each compound: values may come before it.

System: 324938-238-R-J1-PDC complex spheroid viability
Test: Anticancer human tumor 324938-238-R-J1-PDC patient-derived bladder carcinoma cell line growth inhibition
Details: for viability, T/C: stronger effect = lower value
Source text: Multicellular complex tumor spheroid response to LSD1 Inhibitor Iadademstat in combination with a variety of drugs and investigational agents in selected tumor cell lines
The current study was undertaken to assess response to LSD1 inhibitors in combination with standard-of-care drugs and investigational agents in solid tumor complex spheroid models as well as in the K-562 leukemia. Complex spheroids include a stromal component modeled by human endothelial cells (HUVEC) and fibroblasts modeled by human mesenchymal stem cells (MSCs). The concentration ranges selected for each drug and investigational agent were based upon clinically achievable concentrations if the clinical Cmax of the agent was known.
Compounds. The drugs and investigational agents used in this study are listed on Table 1. All of the agents used, including staurosporine (NSC755774) and gemcitabine (NSC613327), were obtained from the Developmental Therapeutics Program, NCI. FDA-approved anticancer drugs are available from the NCI at http://dtp.nci.nih.gov/branches/dscb/oncology_drugset_explanation.html. Drugs and investigational agents were >95% pure by proton nuclear magnetic resonance (NMR) and liquid chromatography/mass spectrometry (LC/MS). Stock solutions were prepared at 400x in DMSO, stored at -70 degrees C, and diluted in fresh medium prior to their use. The final concentration of DMSO in cell culture wells never exceeded 0.25% (v/v). The FDA-approved anticancer drug set is available from the Developmental Therapeutics Program at https://dtp.cancer.gov/organization/dscb/obtaining/available_plates.htm. All drugs and investigational agents were tested over a range starting from a high concentration at or near the clinical Cmax and decreasing in half-log increments. If the clinical Cmax for an agent had not been determined, the highest concentration tested was 10 microM.
Cell Lines. The patient-derived cancer cell (PDC) lines: 292921-168-R-J2-PDC, K24384-001-R-PDC, and 521955-158-R2-J5-PDC pancreatic carcinomas, 556581-035-R-J1 ovarian carcinoma, 324938-238-R-J1-PDC, 855422-203-R-J1-PDC and 883617-216-R-J1-PDC urothelial bladder carcinomas, 743489-274-T-PDC renal cell carcinoma, 138582-R-J1 Merkel cell tumor, K60290-347-R-J1 and K57222-313-R-J1-PDC glioblastomas, 653999-131-R-J2-PDC, LG0703-F948-PDC, and 349418-098-R-PDC non-small cell lung carcinomas, 885512-296-R-J2-PDC, 171881-019-R-J1-PDC breast carcinomas and 186277-243-T-J2-PDC and 233499-124-R-J2-PDC colon carcinomas were obtained from the NCI Patient-Derived Models Repository (PDMR, https://pdmr.cancer.gov). The established cell lines NCI/ADR-RES (RRID:CVCL_14520 and OVCAR-5 (RRID:CVCL_1628) ovarian carcinomas, 786-O (RRID:CVCL_1051) and A498 (RRID:CVCL_A498) renal cell carcinoma, NCI-H211 (ATCC, cat. CRL-5824; RRID:CVCL_1529), NCI-H196 (ATCC, cat. CRL-5823, RRID:CVCL_1509), SW 1271 (ATCC, cat. CRL-2177, RRID:CVCL_1716) and NCI-H1876 (ATCC, cat. CRL-5902, RRID:CVCL_1503) small cell lung carcinomas, MDA-MB-231 (RRID:CVCL_0062) and MDA-MB-468 (RRID:CVCL_0419)breast carcinomas (10-12). Pooled donor human umbilical vein endothelial cells (HUVEC, Lonza, cat. CC-2519) and human mesenchymal stem cells (hMSC, Lonza, cat. PT-2501) were purchased from Lonza (Walkersville, MD).
Cell Culture. All cells were maintained in an incubator at 37 degrees C and 5% CO2 with 95% humidity. The PDC lines were cultured according to standard operating procedures established by the NCI PDMR (https://pdmr.cancer.gov). Briefly all PDCs were thawed and cultured in Matrigel-coated flasks prepared with a working solution of 1X Ham's F-12 nutrient mix, without supplementation (Invitrogen, Waltham, MA, cat. 11765054), 100 U/mL penicillin-streptomycin (Invitrogen, cat. 15140122), and 2.5% Matrigel (Corning Inc., Corning, NY, cat. 354248) for the first three passages. […]

[1] = curve of first compound, second compound 0.1 µM
[2] = curve of first compound, second compound 0.316 µM
[3] = curve of first compound, second compound 1 µM
[4] = curve of first compound, second compound 3.16 µM
[5] = curve of first compound, second compound 10 µM
[6] = second compound 0.1 µM, first compound 0.0316 µM
[7] = second compound 0.1 µM, first compound 0.1 µM
[8] = second compound 0.1 µM, first compound 0.316 µM
[9] = second compound 0.1 µM, first compound 1 µM
[10] = second compound 0.1 µM, first compound 3.16 µM
[11] = second compound 0.1 µM, first compound 10 µM
[12] = second compound 0.316 µM, first compound 0.0316 µM
[13] = second compound 0.316 µM, first compound 0.1 µM
[14] = second compound 0.316 µM, first compound 0.316 µM
[15] = second compound 0.316 µM, first compound 1 µM
[16] = second compound 0.316 µM, first compound 3.16 µM
[17] = second compound 0.316 µM, first compound 10 µM
[18] = second compound 1 µM, first compound 0.0316 µM
[19] = second compound 1 µM, first compound 0.1 µM
[20] = second compound 1 µM, first compound 0.316 µM
[21] = second compound 1 µM, first compound 1 µM
[22] = second compound 1 µM, first compound 3.16 µM
[23] = second compound 1 µM, first compound 10 µM
[24] = second compound 3.16 µM, first compound 0.0316 µM
[25] = second compound 3.16 µM, first compound 0.1 µM
[26] = second compound 3.16 µM, first compound 0.316 µM
[27] = second compound 3.16 µM, first compound 1 µM
[28] = second compound 3.16 µM, first compound 3.16 µM
[29] = second compound 3.16 µM, first compound 10 µM
[30] = second compound 10 µM, first compound 0.0316 µM
[31] = second compound 10 µM, first compound 0.1 µM
[32] = second compound 10 µM, first compound 0.316 µM
[33] = second compound 10 µM, first compound 1 µM
[34] = second compound 10 µM, first compound 3.16 µM
[35] = second compound 10 µM, first compound 10 µM
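Further: spheroids also contain HUVEC and human MSCs and agents combined with iadademstat; spheroids exposed to agents for 7 days before readout.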

Structure (SMILES): CC1COCCN1c1cc(C2(S(C)(=N)=O)CC2)nc(-c2ccnc3[nH]ccc23)n1 (configuration not stated) + NC1CCC(NC2CC2c2ccccc2)CC1
IC50 [1]: 754 nM
IC50 [2]: 851 nM
IC50 [3]: 812 nM
IC50 [4]: 546 nM
IC50 [5]: 769 nM
viability, T/C [6]: 91.8%
viability, T/C [7]: 78.1%
viability, T/C [8]: 62.9%
viability, T/C [9]: 48.9%
viability, T/C [10]: 24.5%
viability, T/C [11]: 13.3%
viability, T/C [12]: 93.9%
viability, T/C [13]: 81.1%
viability, T/C [14]: 72%
viability, T/C [15]: 43.4%
viability, T/C [16]: 30.4%
viability, T/C [17]: 15.2%
viability, T/C [18]: 73.1%
viability, T/C [19]: 77.2%
viability, T/C [20]: 68.8%
viability, T/C [21]: 43.9%
viability, T/C [22]: 28.5%
viability, T/C [23]: 16.7%
viability, T/C [24]: 68.8%
viability, T/C [25]: 80%
viability, T/C [26]: 57.6%
viability, T/C [27]: 38.1%
viability, T/C [28]: 25.9%
viability, T/C [29]: 16.5%
viability, T/C [30]: 77.8%
viability, T/C [31]: 85.7%
viability, T/C [32]: 66.2%
viability, T/C [33]: 43.7%
viability, T/C [34]: 28.2%
viability, T/C [35]: 16.8%

IC50 (curve of compound): > 3000 nM
Structure (SMILES): CCN(c1cc(-c2ccc(CN3CCOCC3)cc2)cc(C(=O)NCc2c(C)cc(C)[nH]c2=O)c1C)C1CCOCC1
viability, T/C (compound 0.00949 µM): 100% and 111%
viability, T/C (compound 0.03 µM): 105%
viability, T/C (compound 0.0949 µM): 96.9% and 101%
viability, T/C (compound 0.3 µM): 96.7% and 97.5%
viability, T/C (compound 0.949 µM): 94.5% and 98.9%
viability, T/C (compound 3 µM): 91.2% and 99%

Structure (SMILES): O=C(c1cc(Cc2n[nH]c(=O)c3ccccc23)ccc1F)N1CCN(C(=O)C2CC2)CC1 + NC1CCC(NC2CC2c2ccccc2)CC1
IC50 [1]: 2900 nM
IC50 [2]: 2760 nM
IC50 [3]: 3970 nM
IC50 [4]: 2720 nM
IC50 [5]: 2480 nM
viability, T/C [6]: 80.8%
viability, T/C [7]: 80.9%
viability, T/C [8]: 86.4%
viability, T/C [9]: 68.1%
viability, T/C [10]: 49.9%
viability, T/C [11]: 41.5%
viability, T/C [12]: 78.7%
viability, T/C [13]: 82.7%
viability, T/C [14]: 83.7%
viability, T/C [15]: 64.4%
viability, T/C [16]: 49.8%
viability, T/C [17]: 36.5%
viability, T/C [18]: 77.7%
viability, T/C [19]: 71.3%
viability, T/C [20]: 80%
viability, T/C [21]: 69.3%
viability, T/C [22]: 53.3%
viability, T/C [23]: 37.9%
viability, T/C [24]: 73.2%
viability, T/C [25]: 74.1%
viability, T/C [26]: 73.2%
viability, T/C [27]: 71%
viability, T/C [28]: 46.9%
viability, T/C [29]: 39.6%
viability, T/C [30]: 70.6%
viability, T/C [31]: 65.8%
viability, T/C [32]: 77%
viability, T/C [33]: 59.3%
viability, T/C [34]: 49.9%
viability, T/C [35]: 45.1%

Structure (SMILES): COc1cc(C2c3cc4c(cc3C(OC3OC5COC(C)OC5C(O)C3O)C3COC(=O)C23)OCO4)cc(OC)c1O (configuration not stated) + NC1CCC(NC2CC2c2ccccc2)CC1
IC50 [1]: 56.7 nM
IC50 [2]: 54.8 nM
IC50 [3]: 51.3 nM
IC50 [4]: 54.7 nM
IC50 [5]: 83.3 nM
viability, T/C (second compound 0.1 µM, first compound 0.00949 µM): 83.9%
viability, T/C (second compound 0.1 µM, first compound 0.03 µM): 67%
viability, T/C (second compound 0.1 µM, first compound 0.0949 µM): 35.3%
viability, T/C (second compound 0.1 µM, first compound 0.3 µM): 22.2%
viability, T/C (second compound 0.1 µM, first compound 0.949 µM): 21.9%
viability, T/C (second compound 0.1 µM, first compound 3 µM): 9.11%
viability, T/C (second compound 0.316 µM, first compound 0.00949 µM): 84.9%
viability, T/C (second compound 0.316 µM, first compound 0.03 µM): 64.9%
viability, T/C (second compound 0.316 µM, first compound 0.0949 µM): 35.3%
viability, T/C (second compound 0.316 µM, first compound 0.3 µM): 23.4%
viability, T/C (second compound 0.316 µM, first compound 0.949 µM): 19%
viability, T/C (second compound 0.316 µM, first compound 3 µM): 10%
viability, T/C (second compound 1 µM, first compound 0.00949 µM): 76.4%
viability, T/C (second compound 1 µM, first compound 0.03 µM): 61.6%
viability, T/C (second compound 1 µM, first compound 0.0949 µM): 36.8%
viability, T/C (second compound 1 µM, first compound 0.3 µM): 22.6%
viability, T/C (second compound 1 µM, first compound 0.949 µM): 22.1%
viability, T/C (second compound 1 µM, first compound 3 µM): 10.1%
viability, T/C (second compound 3.16 µM, first compound 0.00949 µM): 71.8%
viability, T/C (second compound 3.16 µM, first compound 0.03 µM): 64%
viability, T/C (second compound 3.16 µM, first compound 0.0949 µM): 36.1%
viability, T/C (second compound 3.16 µM, first compound 0.3 µM): 27.1%
viability, T/C (second compound 3.16 µM, first compound 0.949 µM): 21.3%
viability, T/C (second compound 3.16 µM, first compound 3 µM): 12.1%
viability, T/C (second compound 10 µM, first compound 0.00949 µM): 67.4%
viability, T/C (second compound 10 µM, first compound 0.03 µM): 67.9%
viability, T/C (second compound 10 µM, first compound 0.0949 µM): 47.1%
viability, T/C (second compound 10 µM, first compound 0.3 µM): 23.8%
viability, T/C (second compound 10 µM, first compound 0.949 µM): 18.6%
viability, T/C (second compound 10 µM, first compound 3 µM): 13.2%
